Data as given in publication PMC3097197 (PLoS ONE, 2011).
“Also recorded” adds a separate entry of the source.

Assays:
[1] = tested on: YopE secretion by attenuated Y. pestis; test: microbe, parasite or virus in culture; type: cell-based, Yersinia pestis KIM19; settings: for inhibition at 10 µM / inhibition at 100 µM: Yersinia pestis, 1 h; for inhibition at 10 µM: read-out: Inhibition of YopE secretion at 10 µM; for inhibition at 100 µM: read-out: Inhibition of YopE secretion at 100 µM
[2] = tested on: HeLa cells incubated with attenuated Y. pestis KIM19 strain
[3] = tested on: Attenuated Y. pestis KIM19 strain; type: cell-based, Yersinia pestis
[4] = in vitro; settings: human, hela cells
[5] = tested on: HeLa cells incubated with attenuated Y. pestis KIM19 strain; test: cells; settings: Homo sapiens, 3 h; for inhibition at 10 µM: read-out: Inhibition of HeLa cell toxicity by attenuated Y. pestis at 10 µM; for inhibition at 50 µM: read-out: Inhibition of HeLa cell toxicity by attenuated Y. pestis at 50 µM
[6] = tested on: human HeLa cells

Compound	Inhibition of YopE secretion (in words) [1]	Effectiveness in the cell infection model (in words) [2]	Effect on growth rate of Y. pestis in bacterial medium (in words) [3]	cytotoxicity at 100 µM [4]	Inhibition of YopE secretion at 50 µM or lower concentration [1]	inhibition at 10 µM [1]	inhibition at 100 µM [1]	inhibition at 10 µM [5]	inhibition at 50 µM [5]	Cytotoxicity against HeLa cells, inhibition at 100 µM [6]
Cc1ccc(S(=O)(=O)N2CCCN(c3ccc([N+](=O)[O-])c4nonc34)CC2)cc1 [Compound 1504]	poor inhibitors of the YopE secretion									
O=C(Cc1csc(NC(=O)c2ccccc2)n1)Nn1cnc2scc(-c3ccco3)c2c1=O [Compound 7086]		only moderately effective	small bacteriostatic effect; also recorded: some bacteriostatic effect; also recorded: slight inhibition of bacterial growth	26 ± 11%	at least 50%	≥ 95%	≥ 80%	0%	20%	
CC(=O)Nc1ccc(-c2csc(NC(=O)c3sc4nc(C)cc(C)c4c3C)n2)c(F)c1 [Compound 7146]	poor inhibitors of the YopE secretion									
CC(=O)Nc1ccc(N2C(=O)c3ccc(C(=O)OC(C)C(=O)c4c[nH]c5ccccc45)cc3C2=O)cc1 (stereo not shown) [Compound 7812]		only moderately effective	none of them had a significant effect on the growth rate; also recorded: minimal bacterial growth inhibition	0%	at least 50%	≥ 95%	≥ 80%	0%	0%	
O=C(CNC(=O)c1sc2ccccc2c1Cl)Nc1ccc(-n2cnc3ccccc32)cc1 [Compound 7832]		only moderately effective	none of them had a significant effect on the growth rate; also recorded: minimal bacterial growth inhibition	0%	at least 50%	≥ 95%	≥ 80%	0%	30%	
CNC(=O)C1CN(C(=O)COC(=O)c2cc(-c3cccs3)nc3ccccc23)c2ccccc2O1 (stereo not shown) [Compound 9652]							30%			
Methanol [reference compound]										100±1%
